{
  "source": "ChEMBL document CHEMBL2074550",
  "about": "“Carbamazepine is not a substrate for P-glycoprotein” (Br J Clin Pharmacol, 2001)",
  "key": {"[1]": {"biological_target": "P-glycoprotein 1 and 3 (MDR1a/MDR1b) (Mus musculus, UniProt P21447+P06795)", "test": "TP_TRANSPORTER: no change in brain concentration in mdr1a/1b(-/-) mouse", "format": "functional, organism-based", "details": "in vivo"}, "[2]": {"biological_target": "T1, ATP-dependent translocase ABCB1 (Homo sapiens, UniProt P08183)", "T1 sequence (P08183 whole entry)": "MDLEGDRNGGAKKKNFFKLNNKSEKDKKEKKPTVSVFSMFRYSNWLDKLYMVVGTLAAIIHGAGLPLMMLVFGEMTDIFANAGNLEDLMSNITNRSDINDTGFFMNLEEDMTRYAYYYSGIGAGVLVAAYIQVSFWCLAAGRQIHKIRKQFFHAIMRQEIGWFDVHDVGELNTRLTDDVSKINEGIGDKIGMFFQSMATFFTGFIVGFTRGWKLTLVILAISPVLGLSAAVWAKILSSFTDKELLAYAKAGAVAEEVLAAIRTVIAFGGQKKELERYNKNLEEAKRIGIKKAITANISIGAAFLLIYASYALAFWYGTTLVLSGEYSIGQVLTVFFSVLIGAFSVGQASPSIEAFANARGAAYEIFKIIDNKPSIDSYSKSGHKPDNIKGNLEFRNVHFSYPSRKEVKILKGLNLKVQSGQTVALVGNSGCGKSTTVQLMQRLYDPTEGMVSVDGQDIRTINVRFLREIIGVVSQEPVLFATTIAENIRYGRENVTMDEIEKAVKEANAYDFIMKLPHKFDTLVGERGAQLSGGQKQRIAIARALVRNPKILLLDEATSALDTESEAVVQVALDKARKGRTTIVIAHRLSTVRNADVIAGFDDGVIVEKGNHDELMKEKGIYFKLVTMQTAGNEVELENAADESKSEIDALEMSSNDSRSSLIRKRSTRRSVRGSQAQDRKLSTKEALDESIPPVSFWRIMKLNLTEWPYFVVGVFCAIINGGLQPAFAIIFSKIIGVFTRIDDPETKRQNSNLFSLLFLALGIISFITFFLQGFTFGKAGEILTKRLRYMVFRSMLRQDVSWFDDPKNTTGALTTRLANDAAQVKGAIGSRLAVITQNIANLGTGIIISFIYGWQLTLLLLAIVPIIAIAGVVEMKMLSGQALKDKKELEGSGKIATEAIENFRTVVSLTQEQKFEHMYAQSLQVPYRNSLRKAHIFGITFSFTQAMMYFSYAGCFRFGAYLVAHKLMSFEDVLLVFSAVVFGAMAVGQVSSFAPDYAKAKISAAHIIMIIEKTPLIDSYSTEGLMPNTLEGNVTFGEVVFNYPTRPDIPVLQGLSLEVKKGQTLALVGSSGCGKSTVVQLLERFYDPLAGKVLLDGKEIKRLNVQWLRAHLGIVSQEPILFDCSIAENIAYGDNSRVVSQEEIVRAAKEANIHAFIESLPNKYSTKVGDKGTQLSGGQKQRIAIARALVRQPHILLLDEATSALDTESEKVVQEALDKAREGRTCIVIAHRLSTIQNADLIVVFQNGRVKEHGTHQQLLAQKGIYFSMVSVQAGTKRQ", "test": "TP_TRANSPORTER: transepithelial transport (basal to apical) in Caco-2 cells", "format": "functional, cell-based"}, "[3]": {"biological_target": "T1, ATP-dependent translocase ABCB1", "test": "TP_TRANSPORTER: inhibition of Rhodamine 123 efflux (R123: 1.5 ug/mL, Carbamazepine: 100 uM) in human lymphocytes", "format": "functional, cell-based", "details": "lymphocyte"}},
  "data": [
    {"smiles": "NC(=O)N1c2ccccc2C=Cc2ccccc21", "note": "[CARBAMAZEPINE]", "values": [
      {"measurement": "Activity", "setting": "[1]", "result": "is not a substrate [-]"},
      {"measurement": "Activity", "setting": "[2]", "result": "is not a substrate [-]"},
      {"measurement": "Activity", "setting": "[3]", "result": "is not an inhibitor [-]"}
    ]}
  ]
}
